Experimental data as given in publication PMC6364417, “Kinase inhibitor library screening identifies synergistic drug combinations effective in sensitive and resistant melanoma cells” (Journal of Experimental & Clinical Cancer Research : CR, 2019).
Like-named read-outs stand apart in the source and are kept apart here.

Key:
Test in all cases: Kinase inhibitor library screening, PrestoBlue cell viability, 1 or 10 μM, 72 h
[1] = tested on: A375-XP cells (Vemurafenib-resistant)
Method: (§1) After 72 h of treatment, cell viability was assessed using the PrestoBlue Cell Viability Reagent (ThermoFisher Scientific). Measurements were performed with the CLARIOstar Monochromator microplate reader (BMG Labtech).
(§2) Kinase inhibitor library screening. […] Each cell line was treated in its sensitive form (parental), and also as 2 resistant derivatives, which were made resistant to either Vemurafenib (XP) or Dabrafenib (GP). Drugs were added at 2 different concentrations, 1 and 10 μM, for 72 h and cell viability was assessed using the PrestoBlue Cell Viability assay. Results are depicted as % viability compared to untreated cells. Each cell line was analyzed at least in duplicate. […] (XLSX 95 kb)

A375 cells (parental) = tested on: A375 cells (parental)
Method: as §1, §2

[2] = tested on: A375-GP cells (Dabrafenib-resistant)
Method: as §1, §2

IGR37 cells (parental) = tested on: IGR37 cells (parental)
Method: as §1, §2

[3] = tested on: IGR37-GP cells (Dabrafenib-resistant)
Method: as §1, §2

[4] = tested on: 501Mel-GP cells (Dabrafenib-resistant)
Method: as §1, §2

[5] = tested on: IGR37-XP cells (Vemurafenib-resistant)
Method: as §1, §2

[6] = tested on: 501Mel-XP cells (Vemurafenib-resistant)
Method: as §1, §2

501Mel cells (parental) = conditions: 501Mel Parental, in %
Method: as §1, §2

FC(F)(F)c1ccc(/C=C/c2nc(COc3ccc(CCCCn4ccnn4)cc3)co2)cc1 [Mubritinib (TAK 165)]
cell viability, A375 XP, 1μΜ [1]: 94.9
cell viability, A375 XP, 10μΜ [1]: 98.4
cell viability, A375 Parental, 1μΜ (A375 cells (parental)): 94.8
cell viability, A375 Parental, 10μΜ (A375 cells (parental)): 91.7
cell viability, A375 GP, 1μΜ [2]: 93.7
cell viability, A375 GP, 10μΜ [2]: 94.7
cell viability, IGR37 Parental, 1μΜ (IGR37 cells (parental)): 98.7
cell viability, IGR37 Parental, 10μΜ (IGR37 cells (parental)): 100.1
cell viability, IGR37 GP, 1μΜ [3]: 99.8
cell viability, IGR37 GP, 10μΜ [3]: 95.3
cell viability, 501Mel GP, 10μΜ [4]: 95.8
cell viability, IGR37 XP, 1μΜ [5]: 98.3
cell viability, IGR37 XP, 10μΜ [5]: 81.5
cell viability, 501Mel XP, 1μΜ [6]: 92.8
cell viability, 501Mel XP, 10μΜ [6]: 81.6

O=c1c(O)c(-c2ccc(O)c(O)c2)oc2cc(O)cc(O)c12 [Quercetin (Sophoretin)]
Cell viability in kinase inhibitor library screening, 501Mel Parental, 1μΜ (501Mel cells (parental); 1μΜ, 72 h): 99.7
Cell viability in kinase inhibitor library screening, 501Mel Parental, 10μΜ (501Mel cells (parental); 10μΜ, 72 h): 94.0
Cell viability in kinase inhibitor library screening, A375 XP, 10μΜ ([1]; A375 XP, 10μΜ, 72 h): 96.9
Cell viability in kinase inhibitor library screening, A375 Parental, 10μΜ (A375 cells (parental); A375 Parental, 10μΜ, 72 h): 94.2
Cell viability in kinase inhibitor library screening, A375 Parental, 1μΜ (A375 cells (parental); A375 Parental, 1μΜ, 72 h): 97.7
Cell viability in kinase inhibitor library screening, A375 GP, 10μΜ ([2]; A375 GP, 10μΜ, 72 h): 87.9
Cell viability in kinase inhibitor library screening, IGR37 GP, 10μΜ ([3]; IGR37 GP, 10μΜ, 72 h): 78.8%
Cell viability in kinase inhibitor library screening, 501Mel GP, 1μΜ ([4]; 501Mel GP, 1μΜ, 72 h, in %): 98.5
Cell viability in kinase inhibitor library screening, 501Mel GP, 10μΜ ([4]; 501Mel GP, 10μΜ, 72 h, in %): 87.4
Cell viability in kinase inhibitor library screening, IGR37 XP, 10μΜ ([5]; IGR37 XP, 10μΜ, 72 h): 58.7%
Cell viability in kinase inhibitor library screening, IGR37 XP, 1μΜ ([5]; IGR37 XP, 1μΜ, 72 h, in %): 99.1
Cell viability in kinase inhibitor library screening, 501Mel XP, 1μΜ ([6]; 501Mel XP, 1μΜ, 72 h, in %): 90.4
Cell viability in kinase inhibitor library screening, 501Mel XP, 10μΜ ([6]; 501Mel XP, 10μΜ, 72 h, in %): 65.0

Cc1[nH]c(/C=C2\C(=O)Nc3ccccc32)c(C)c1CCC(=O)O [TSU-68]
cell viability (kinase inhibitor library screening) (501Mel cells (parental); 1μΜ): 103.3
cell viability (kinase inhibitor library screening) ([1]; A375 XP, 1μΜ, in %): 108.6
cell viability (kinase inhibitor library screening) ([1]; A375 XP, 10μΜ, in %): 103.8
cell viability (kinase inhibitor library screening) (A375 cells (parental); A375 Parental, 1μΜ, in %): 114.1
cell viability (kinase inhibitor library screening) (A375 cells (parental); A375 Parental, 10μΜ, in %): 107.4
cell viability (kinase inhibitor library screening) ([2]; A375 GP, 1μΜ, in %): 113.8
cell viability (kinase inhibitor library screening) ([2]; A375 GP, 10μΜ, in %): 94.6
cell viability (kinase inhibitor library screening) ([3]; IGR37 GP, 1μΜ, in %): 97.4
cell viability (kinase inhibitor library screening) ([4]; 501Mel GP, 1μΜ, in %): 108.8
cell viability (kinase inhibitor library screening) ([4]; 501Mel GP, 10μΜ, in %): 99.1
cell viability (kinase inhibitor library screening) ([5]; IGR37 XP, 1μΜ, in %): 95.2
cell viability (kinase inhibitor library screening) ([5]; IGR37 XP, 10μΜ, in %): 76.8
cell viability (kinase inhibitor library screening) ([6]; 501Mel XP, 1μΜ, in %): 99.9
cell viability (kinase inhibitor library screening) ([6]; 501Mel XP, 10μΜ, in %): 80.9

C[C@@H]1CCN(C(=O)CC#N)C[C@@H]1N(C)c1ncnc2[nH]ccc12 [Tofacitinib (CP-690550, Tasocitinib)]
cell viability, A375 XP, 1μΜ ([1]; A375 XP, 1μΜ, 72 h, in %): 103.8
cell viability, A375 XP, 10μΜ ([1]; A375 XP, 10μΜ, 72 h, in %): 103.6
cell viability, A375 Parental, 1μΜ (A375 cells (parental); A375 Parental, 1μΜ, 72 h, in %): 104.5
cell viability, A375 Parental, 10μΜ (A375 cells (parental); A375 Parental, 10μΜ, 72 h, in %): 97.3
cell viability, A375 GP, 1μΜ ([2]; A375 GP, 1μΜ, 72 h, in %): 103.9
cell viability, A375 GP, 10μΜ ([2]; A375 GP, 10μΜ, 72 h, in %): 97.7
cell viability, IGR37 Parental, 1μΜ (IGR37 cells (parental); IGR37 Parental, 1μΜ, 72 h, in %): 108.6
cell viability, IGR37 Parental, 10μΜ (IGR37 cells (parental); IGR37 Parental, 10μΜ, 72 h, in %): 104.5
cell viability, IGR37 GP, 10μΜ ([3]; IGR37 GP, 10μΜ, 72 h): 95.3%
cell viability, IGR37 GP, 1μΜ ([3]; IGR37 GP, 1μΜ, 72 h, in %): 97.9
cell viability, 501Mel GP, 1μΜ ([4]; 501Mel GP, 1μΜ, 72 h, in %): 104.8
cell viability, 501Mel GP, 10μΜ ([4]; 501Mel GP, 10μΜ, 72 h, in %): 94.8
cell viability, IGR37 XP, 10μΜ ([5]; IGR37 XP, 10μΜ, 72 h): 71.2%
cell viability, IGR37 XP, 1μΜ ([5]; IGR37 XP, 1μΜ, 72 h, in %): 96.7
cell viability, 501Mel XP, 1μΜ ([6]; 501Mel XP, 1μΜ, 72 h, in %): 94.3
cell viability, 501Mel XP, 10μΜ ([6]; 501Mel XP, 10μΜ, 72 h, in %): 92.6
